Here are results for one compound from US20080255238A1, “COMPOSITION CONTAINING A THIOUREA DERIVATIVE FOR PREVENTING OR TREATING PRURITIC OR IRRITANT SKIN DISEASES” (AMOREPACIFIC CORPORATION, priority 2004, published 2008).

The subject of test [1] is New Zealand white rabbits. Briefly: Inhibition of skin irritation induced by retinoic acid in New Zealand white rabbits, topical administration. It is filed as in vivo. The source says:
Inhibition of Skin Irritation Induced by Retinoic Acid in New Zealand White Rabbits
However, it is known that retinoic acid causes irritation in its initial stage of use and further causes side effects, such as skin erythema and edema, when topically applied to the skin (Varani et al., 2003, Arch. Dermatol. Res., 295, pp 255-262). A number of attempts to reduce the skin irritation induced by retinoic acid have been made in many directions (Kim et al., 2003, Toxicol. Letters., 146, pp 65-73). […] In this experiment, New Zealand white rabbits received retinoic acid to cause skin irritation. One day before the experiment, hairs around the back of four male New Zealand white rabbits (2.0˜2.5 kg) were shaved. Four application sites, which are symmetrical by two (i.e. right upper-site-left upper site and right lower site-left lower site), were marked at the shaved back of each rabbit. 100 μl of 0.025% retinoic acid (Sigma, U.S.A.) was topically applied to all four-application sites. 30 minutes after the application, the two sites marked at the right were treated with the drug (compound 1, 1%/100 μl/each application site), and the two sites marked at the left were treated with a solvent (100 μl/each application site) alone. At this time, retinoic acid and the drug were dissolved in a mixed solution of PEG 400 and ethanol (7:3), and then topically applied twice daily for four consecutive days. On the fifth day, the application sites were visually observed to evaluate the degree of skin irritation. The degree of skin irritation was expressed in a cumulative irritation index. […] The cumulative irritation index was judged based on occurrence of erythema, and scored in accordance with the following criteria: Occurrence of no erythema (0), occurrence of slightly visible erythema (1), occurrence of distinct erythema (2), occurrence of distinct scarlet erythema (3), and occurrence of distinct crimson erythema and scaling (4).

Another test deals with ICR mice. Briefly: Itching induced by histamine in ICR mice, oral administration. Particulars: for % Inhibition (mean ± SE): scratching frequency over 30 min, histamine 100 nmol/mouse i.d. 1 h after dosing. It is filed as in vivo. An excerpt:
Itching Induced by Histamine in ICR Mice
It is known that the itching response induced by histamine in rodents is generally weaker than that in humans (Kuraishi et al., 1995, Eur. J. Pharmacol. 275, pp 229-233). However, it is known that uniquely, ICR mice sensitively respond to histamine, and this leads to itching response (Maekawa et al., 2000, Jpn. J. Pharmacol. 84, pp 462-466). As is widely known, histamines are representative itching mediators and obviously induce itching in human subjects (Simone et al., 1987, Somatosens. Res. 5, pp 81-92). In this experiment, ICR mice received […]. One day before the experiment, the rostral part of the skin on the back of male ICR mice (28˜32 g, 5˜8 mice/group was clipped. The mice were fasted for 18 hours before experimentation. The drug (compound 1, 0.5 ml/mouse) was dissolved in hydroxypropyl-β-cyclodextrin (HP-β-CD; Mitsubishi Ltd., Japan), and then orally administered to the mice. One hour after the administration, histamine (100 nmol/50 μl/mouse) was dissolved in a physiological saline solution and injected intradermally into the back skin of mice. Immediately after the injection, the mice were placed in a transparent cage, and then the frequency of scratching of the injected site by the hind paws was counted for 30 minutes. The frequency of scratching in test groups administered with the drug was compared to that in a control group administered with histamine alone. The decrease in the frequency of scratching in the test groups was determined as an index of inhibitory effects on itching. The decrease in the frequency of scratching was expressed as a percentage of inhibition to determine inhibitory effects of each compound on itching.

`CC(C)(C)c1ccc(CNC(=S)NCc2ccc(NS(C)(=O)=O)c(F)c2)cc1` [Compound 1, 1-(4-t-butylbenzyl)-3-(3-fluoro-4-methanesulfonylaminobenzyl)thiourea]: in test [1] (decrease in cumulative irritation index vs retinoic acid + solvent, compound 1%, 100 μl/application site, topical, rabbits), the “% Inhibition (mean)” value amounted to 40%. Moreover, the “Cumulative irritation index (mean ± SE)” value in test [1] (erythema score 0-4 on fifth day, retinoic acid 0.025% + compound 1%, 100 μl/application site, topical twice daily for four days, rabbits) was 1.88 ± 0.45. The “inhibitory effects on skin irritation (in words)” value in test [1] (retinoic acid, New Zealand white rabbits, topical) is reported as “inhibitory effects on skin irritation”. Moreover, in the test on ICR mice (histamine), the “antipruritic effects (in words)” value is “potent anti-pruritic effects in a dose-dependent manner”. The “% Inhibition (mean ± SE)” value with ICR mice (dose 10 mg/mouse) is given as 39.8 ± 18.1%; in the test with ICR mice (dose 30 mg/mouse) it was 46.7 ± 24.0%; with ICR mice (dose 100 mg/mouse), 75.8 ± 26.9%.
